The results in this text go back to patent US7579005B2, “Process for recombinant expression and purification of antimicrobial peptides using periplasmic targeting signals as precipitable hydrophobic tags” (E. I. du Pont de Nemours and Company, priority 2005, dated 2009).

Residues, ends and D or L forms follow the SMILES beside them.

Data set [1] can be described thus: Effect of pH on solubility of OmpAPerSD and PG1. In kind it is physicochemical. The settings on record: chemically synthesized samples, pH 1 to 12, 15 minutes at room temperature, supernatant by BCA total protein; FIG. 6. On the procedure: Stock solutions of chemically synthesized samples of OmpAPerSD and PG1 were made in 0.1N NaOH. The pH of each sample was adjusted by the addition of 0.2 M sodium phosphate buffer or 0.1N HCl. Finally, water was added to make the final volume of each sample the same and the samples were mixed by vortexing. After 15 minutes at room temperature all samples were centrifuged at 13,000×g in a micro-centrifuge. The supernatants were carefully separated from the insoluble precipitates and analyzed for protein by the BCA total protein method. Protein determinations were made using standard solutions of synthetic OmpAPerSD and PG1, respectively, in 0.1N NaOH. […] The difference in pH solubility of OmpAPerSD and PG1 peptides, with maximal difference at low pH, lends to their ready separation by centrifugation or filtration.

The subject of the next data set is E. coli expression host. The data set is described as follows: Growth of E. coli host cells expressing the fusion proteins (shake flask studies). The format is cell-based. Conditions: tryptophan induction. On the procedure: Single colonies of E. coli containing pLH117 or pLH119 were grown in Rich Medium overnight at 30° C. at 250 rpm. A fresh culture was started the following day using 10% of the overnight growth diluted in Induction media and grown to an OD550 of 0.8. Induction media had no tryptophan (1×M9 salts, 0.2% casamino acids, 0.5% glucose, 1 mM MgCl2, and 100 ug/ml ampicillin). To facilitate induction, tryptophan was added for a final concentration of 100 μg/ml and flasks were incubated at 37° C. with shaking at 300 rpm. Samples were taken pre-induction and at 4, 8, and 12 hr post induction. Cell pellets were collected by centrifugation and analyzed for protein production.
Single colonies of E. coli containing pLH121 or pLH122 were grown in Rich Medium overnight at 30° C. at 250 rpm. A fresh culture was started the following day using 10% of the overnight growth in Induction medium and grown to an OD550 of 1.0 at 37°. To facilitate induction, tryptophan was added for a final concentration of 100 μg/ml. Samples were taken pre-induction and at 5 hr post induction. Cell pellets were collected by centrifugation and analyzed for protein production.

On to `CC[C@H](C)[C@H](NC(=O)[C@H](C)NC(=O)[C@@H](NC(=O)[C@H](C)NC(=O)[C@@H](NC(=O)[C@H](CCCCN)NC(=O)[C@H](CCCCN)NC(=O)[C@@H](N)CCSC)[C@@H](C)O)[C@@H](C)CC)C(=O)N[C@@H](C)C(=O)N[C@H](C(=O)N[C@@H](C)C(=O)N[C@@H](CC(C)C)C(=O)N[C@@H](C)C(=O)NCC(=O)N[C@@H](Cc1ccccc1)C(=O)N[C@@H](C)C(=O)N[C@H](C(=O)N[C@H](C(=O)N[C@@H](C)C(=O)N[C@@H](CCC(N)=O)C(=O)N[C@@H](C)C(=O)N[C@@H](CC(=O)O)C(=O)O)C(C)C)[C@@H](C)O)C(C)C` [OmpAPerSD] (H-MKKTAIAIAVALAGFATVAQAD-OH; N-terminus and C-terminus assumed), for which the “solubility over a range of pH” value in data set [1] was “increases with increasing pH”.
As to `CC(C)C[C@H](NC(=O)[C@H](CCCCN)NC(=O)[C@H](CC(C)C)NC(=O)[C@H](CC(C)C)NC(=O)[C@H](CCCCN)NC(=O)[C@H](CCCCN)NC(=O)[C@H](CC(C)C)NC(=O)CNC(=O)[C@H](CCCCN)NC(=O)[C@H](CC(C)C)NC(=O)[C@H](CC(C)C)NC(=O)[C@H](CCCCN)NC(=O)[C@H](CCCCN)NC(=O)[C@H](CC(C)C)NC(=O)CNC(=O)[C@H](CCCCN)NC(=O)[C@@H]1CCCN1)C(=O)O` [P16KGLG1] (H-PKGLKKLLKGLKKLLKL-OH; N-terminus and C-terminus assumed), in data set [1], the “solubility over a range of pH” value is “does not appear to be pH dependent”.
Regarding “OmpA targeting signal sequence-16KGLG1-6His: fusion protein of OmpA periplasmic targeting signal, 16KGLG1 and 6His tag, expressed from pLH119 (MKKTAIAIAVALAGFATVAQAKGLKKLLKGLKKLLKLHHHHHH; OmpA PerS-G1-6His fusion protein)”, in the data set with E. coli expression host, the “growth of cells expressing the fusion protein versus control cells containing only pLEX” value is reported as “grew at similar rates as control cells”.
